Results on 14 compounds are retold here after ChEMBL document CHEMBL4699402, “Identification of N-benzothiazolyl-2-benzenesulfonamides as novel ABCA1 expression upregulators” (RSC Med Chem, 2020).

pEC50: −log10 of the molar value. Active and inactive are the calls of the source. No cut-off for these calls is given here. Bounds are passed on as bounds.

The nature of series [1]: Upregulation of ABCA1 expression in human HepG2 cells expressing luciferase plasmid assessed as maximal increase incubated for 24 hrs by luciferase reporter gene assay relative to control. The format is functional. In general terms: In a reporter assay the amount or activity of a reporter protein is the signal.
Series [2] in a line: Upregulation of ABCA1 expression in human HepG2 cells expressing luciferase plasmid incubated for 24 hrs by luciferase reporter gene assay. The format is functional, cell-based. The note with it: HepG2, 24 h.
Series [3] deals with HepG2. In words: Cytotoxicity against human HepG2 cells assessed as reduction in cell viability incubated for 72 hrs measured by CCK8 assay. The format is cell-based. The note with it: hepg2, 72 h. On the technique in general: Tetrazolium dyes change colour on reduction, which living cells bring about.
The nature of series [4]: Potency index, ration of WY06 EC50 to test compound EC50 for upregulation of ABCA1 expression in human HepG2 cells expressing luciferase plasmid incubated for 24 hrs by luciferase reporter gene assay. The format is functional.
In series [5] the test system is RAW264.7. Put plainly: Upregulation of ABCA1 protein expression in mouse RAW264.7 cells incubated for 24 hrs by western blot analysis. The note with it: dose microM 2.5-10, time 24.0 hrs. The format is functional, cell-based.
Series [6] deals with RAW264.7. Put plainly: Upregulation of ABCA1 mRNA expression in mouse RAW264.7 cells at 5 uM incubated for 24 hrs by RT-qPCR analysis. The format is functional, cell-based. A general note: In qPCR the cycle at which signal appears reflects the starting amount.
Series [7] in a line: Upregulation of ABCA1 expression in human HepG2 cells expressing luciferase plasmid assessed as maximal fold increase incubated for 24 hrs by luciferase reporter gene assay relative to control. The class given is functional.
Series [8] in a line: Upregulation of ABCA1 protein expression in mouse RAW264.7 cells assessed as maximal increase at 10 uM incubated for 24 hrs by western blot analysis relative to control. The class given is functional.
The nature of series [9]: Upregulation of ABCA1 mRNA expression in mouse RAW264.7 cells assessed as maximal upregulation at 10 uM incubated for 24 hrs by RT-qPCR analysis relative to control. The format is functional.
Series [10] has as its system HepG2. Put plainly: Upregulation of ABCA1 expression in human HepG2 cells expressing luciferase plasmid incubated for 24 to 48 hrs by luciferase reporter gene assay. To be noted: dose microM 0.78-50, time hrs 24-48. The format is functional, cell-based.
For series [11], the system named is RAW264.7. In words: Upregulation of ApoA-I protein expression in mouse RAW264.7 cells at 2.5 to 10 uM by western blot analysis. The format is functional, cell-based. The note with it: dose microM 2.5-10.
Series [12] has as its system RAW264.7. Put plainly: Induction of cholesterol efflux in mouse RAW264.7 cells assessed as decrease in cellular 22-NBD-cholesterol content at 2.5 to 10 uM incubated for 24 hrs by DAPI staining based fluorescence analysis. The format is functional, cell-based. To be noted: dose microM 2.5-10, time 24.0 hrs.
A short description of series [13]: Upregulation of ABCA1 mRNA expression in mouse RAW264.7 cells assessed as maximal fold increase at 5 uM incubated for 24 hrs by RT-qPCR analysis relative to control. The class given is functional.
Series [14] has as its system RAW264.7. In words: Upregulation of ABCA1 mRNA expression in mouse RAW264.7 cells at 2.5 to 10 uM incubated for 24 hrs by RT-qPCR analysis. The format is functional, cell-based. To be noted: dose microM 2.5-10, time 24.0 hrs.
The subject of series [15] is RAW264.7. In words: Upregulation of ABCA1 protein expression in mouse RAW264.7 cells at 2.5 to 10 uM incubated for 24 hrs by western blot analysis. The class given is functional, cell-based. The note with it: dose microM 2.5-10, time 24.0 hrs.

In the case of `C=CCN(c1nc2ccc(F)cc2s1)S(=O)(=O)c1cccc(N)c1`, the Activity in [1] is given as 152%. Further, the pEC50 in series [2] is 4.59.

Regarding `CCOC(=O)CN(c1nc2ccc(F)cc2s1)S(=O)(=O)c1ccc(N)cc1`, the Activity is on record as 167% in series [1] and “Non-Toxic” in series [3]. The pEC50 in [2] is 6.01.

As to `C=CCN(c1nc2ccccc2s1)S(=O)(=O)c1cccc(N)c1`, in series [1], the Activity was found to be 136%. The pEC50 in series [2] is < 4.30.

Regarding `C=CCN(c1nc2ccc(F)cc2s1)S(=O)(=O)c1ccc(N)cc1`, the Activity in series [1] is recorded as 135%. Further, the negative-log EC50 (pEC50) in [2] is 5.13.

Turning to `CCOC(=O)CN(c1nc2ccc(Cl)cc2s1)S(=O)(=O)c1ccc(N)cc1`, in series [4], the “Ratio EC50” value is “>=15”. Besides, the Activity in series [1] was 174%; in series [3], “Non-Toxic”; in series [5], “Dose-dependent effect”. Further, the pEC50 in [2] was 6.43. The result in [6] was Active. The “fold change (FC)” value in series [7] is recorded as 1.74.

As for `N#CCN(c1nc2ccc(Cl)cc2s1)S(=O)(=O)c1ccc(N)cc1`, in series [4], the “Ratio EC50” value is >15. The Activity in [8] was 240%; in series [1], 206%; in series [9], 210%; in series [10], “Dose-dependent effect”; in [3] it was “Non-Toxic”; in series [5], “Dose-dependent effect”. Further, the outcome in [11] was inactive. This compound had a pEC50 in series [2] of 6.39. Moreover, the result in series [12] was Active.

Take `N#CCN(c1nc2ccc(Cl)cc2s1)S(=O)(=O)c1cccc(N)c1`: the “fold change (FC)” value in series [13] amounted to 1.5; in series [7], 1.68. Besides, the Activity in series [1] is 168%; in [3] it was “Non-Toxic”; in series [5], “Dose-dependent effect”. Further, in [2], the pEC50 was 5.23.

For `N#CCN(c1nc2ccccc2s1)S(=O)(=O)c1cccc(N)c1`, the Activity in series [1] is 124%. The negative logarithm of the EC50 (pEC50) in [2] was < 4.30.

For `C=CCN(c1nc2ccc(Cl)cc2s1)S(=O)(=O)c1ccc(N)cc1`, the Activity in series [1] was 135%. The pEC50 in [2] was 4.98.

In the case of `CCOC(=O)CN(c1nc2ccccc2s1)S(=O)(=O)c1ccc(N)cc1`, the Activity is 209% in [1] and “Non-Toxic” in [3]. In addition, the negative logarithm of the EC50 (pEC50) in series [2] was 5.91.

With `N#CCN(c1nc2ccccc2s1)S(=O)(=O)c1ccc(N)cc1`, the Activity in series [1] stood at 157%. The compound also had a pEC50 in [2] of 5.07.

With `C=CCN(c1nc2ccccc2s1)S(=O)(=O)c1ccc(N)cc1`, the Activity in [1] was 115%. Besides, the pEC50 in series [2] is 4.48.

As to `N#CCN(c1nc2ccc(F)cc2s1)S(=O)(=O)c1ccc(N)cc1`, the Activity in series [1] was 163%. In series [2], this compound gave a pEC50 of 5.59.

In the case of `CCOC(=O)CN(c1nc2ccc(OC)cc2s1)S(=O)(=O)c1ccc(N)cc1`, the values for the Activity in series [1] and in [3] were 138% and “Non-Toxic”, respectively. Further, the outcome in series [14] and in [15] was inactive. The pEC50 in [2] was 5.20. The “fold change (FC)” value in series [7] was 1.38.

One may read the pEC50 as −log10 of the EC50, conventionally taken in molar units.
